Structures can show the parent of a compound that is named as a salt.
Tested on: pentagastrin stimulated gastric acid secretion
Assay: Rat lumen perfused stomach (modified Ghosh and Schild procedure)
Format: in vivo
Conditions: i.v. administration; for inhibition at 10 µmol/kg: iv, 10µmole/kg, read-out: Rat G.S. % inhibition @ 10µmole/kg
Description: Using a modification of the procedure described by Ghosh and Schild (Br. J. Pharmacology, 13, 54, 1958), the compounds of the following Examples were found on i.v. administration at a concentration of 10µmole/kg to cause an inhibition of pentagastrin stimulated gastric acid secretion as indicated in the following Table.

Row | Compound | inhibition at 10 µmol/kg [%] | Rat G.S. % inhibition @ 10µmole/kg [%]
1 | Cc1ccccc1Nc1nc(N)nc2c(C)cccc12 [Example 6, 2-amino-8-methyl-4-(2-methylphenylamino)quinazoline] | 48 | 
2 | Cc1ccccc1Nc1nc(N2CCCC2)nc2ccccc12 [Example 8, 2-pyrrolidino-4-(2-methylphenylamino)quinazoline] | 17 | 
3 | Cc1ccccc1Nc1nc(N(C)c2ccccc2)c2ccccc2n1 [Example 26, 2-(2-methylphenylamino)-4-(N-methylphenylamino)quinazoline hydrochloride] | 79 | 
4 | COc1ccc(Nc2nc(N)nc3c(OC)cccc23)c(C)c1 [Example 3, 2-amino-8-methoxy-4-(2-methyl-4-methoxyphenylamino)quinazoline] | 16 | 
5 | CCc1ccc2nc(N)nc(Nc3ccccc3C)c2c1 [Example 11, 2-amino-4-(2-methylphenylamino)-6-ethylquinazoline] | 28 | 
6 | CN(c1ccccc1)c1nc(N(C)c2ccccc2)c2ccccc2n1 [Example 20, 2,4-Bis-(N-methylphenylamino)quinazoline hydrochloride] | 72 | 
7 | Cc1ccccc1Nc1nc(N(C)c2ccccc2)nc2ccccc12 [Example 22, 2-(N-methylphenylamino)-4-(2-methylphenylamino)quinazoline hydrochloride] | 27 | 
8 | CNc1nc(Nc2ccccc2C)c2cccc(OC)c2n1 [Example 13, 2-methylamino-8-methoxy-4-(2-methylphenylamino)quinazoline] | 20 | 
9 | Cc1cc(O)ccc1Nc1nc(N(C)c2ccccc2)c2ccccc2n1 [Example 30, 2-[(4-hydroxy-2-methylphenyl)amino]-4-(N-methylphenylamino) quinazoline hydrochloride] | 23 | 
10 | COc1cccc2c(Nc3ccccc3C)nc(N(C)c3ccccc3)nc12 [Example 21, 2-(N-methylphenylamino)-4-(2-methylphenylamino)-8-methoxyquinazoline] | 37 | 
11 | Cc1ccccc1CNc1nc(N(C)c2ccccc2)c2ccccc2n1 [Example 31, 2-(2-methylbenzylamino)-4-(N-methylphenylamino)quinazoline hydrochloride] | 8 | 
12 | COc1cccc2c(NCc3ccccc3)nc(N)nc12 [Example 2, 2-amino-8-methoxy-4-benzylaminoquinazoline] | 25 | 
13 | 2-phenylethylamino-4-(2-methylphenylamino)quinazoline [Example 16] |  | 31
14 | CN(c1ccccc1)c1nc(Nc2ccccc2)nc2ccccc12 [Example 27, 2-phenylamino-4-(N-methylphenylamino)quinazoline hydrochloride] | 71 | 
15 | COc1cccc2c(Nc3ccccc3C)nc(N)nc12 [Example 1, 2-amino-8-methoxy-4-(2-methylphenylamino)quinazoline] | 60 | 
16 | COc1cccc2c(NCc3ccccc3C)nc(N)nc12 [Example 4, 2-amino-8-methoxy-4-(2-methylbenzylamino)quinazoline] | 37 | 
17 | COc1cccc2c(Nc3ccccc3C)nc(N3CCCC3)nc12 [Example 15, 2-pyrrolidino-8-methoxy-4-(2-methylphenylamino)quinazoline] | 31 | 
18 | Cc1ccccc1CNc1nc(N)nc2ccccc12 [Example 25, 2-amino-4-(2-methylbenzylamino)quinazoline] | 24 | 
19 | Cc1cc(F)ccc1Nc1nc(N(C)c2ccccc2)c2ccccc2n1 [Example 32, 2-[(2-methyl-4-fluorophenyl)amino]-4-(N-methylphenylamino)quinazoline hydrochloride] | 96 | 
20 | COc1cccc2c(N(C)c3ccccc3)nc(N)nc12 [Example 29, 2-amino-4-(N-methylphenylamino)-8-methoxyquinazoline hydrochloride] | 13 | 
21 | COc1ccccc1Nc1nc(N)nc2c(OC)cccc12 [Example 18, 2-amino-8-methoxy-4-(2-methoxyphenylamino)quinazoline] | 12 | 
22 | COc1cccc2c(N(C)c3ccccc3)nc(Nc3ccccc3C)nc12 [Example 24, 4-(N-methylphenylamino)-2-(2-methylphenylamino)-8-methoxyquinazoline] | 97 | 
23 | COc1cccc2c(Nc3ccccc3C)nc(N(C)C)nc12 [Example 5, 2-dimethylamino-8-methoxy-4-(2-methylphenylamino)quinazoline] | 37 | 
24 | Cc1ccccc1Nc1nc(N)nc2ccccc12 [Example 7, 2-amino-4-(2-methylphenylamino)quinazoline] | 20 | 

Reference: patent EP0322133A1, “Quinazoline derivatives” (SmithKline Beecham Intercredit B.V., priority 1987, dated 1989)
